From patent publication US10207984B2, “Cyclopropyl derivatives and methods of use” (Emory University, priority 2011, dated 2019) come the findings set out here.

Series [1] concerns the target T1, norepinephrine transporters (NET) (Rattus norvegicus, UniProt Q9WTR4).
T1 construct: Whole rat brains (minus cerebellum) are homogenized; from tissue; host or cells: rat whole brain minus cerebellum, membranes
The series can be described thus: NET binding, displacement of [3H]nisoxetine in rat brain membranes. As to conditions: [3H]nisoxetine displacement, rat brain membranes; Ki by Cheng-Prusoff; read-out: NET. The method, then: (§1) Binding of analogs at norepinephrine transporters (NET) was determined by displacement of [^3H]nisoxetine binding. […] The membranes are resuspended in nisoxetine assay buffer (300 mM NaCl, 5 mM KCl, 50 mM Tris-HCl, pH 7.4) and centrifuged again before final resuspension in volumes of buffer. Assay tubes contain 750 μl of brain membranes, [^3H]nisoxetine (0.7 nM) together with unlabeled drugs dissolved in nisoxetine assay buffer to a final volume of 1 ml. Tubes are incubated for 40 min at 25° C., and the reaction is terminated by rapid filtration with 3×4 mL of cold Tris buffer through Whatman GF/B glass fiber filters which have been pre-soaked in Tris buffer containing 0.1% BSA for at least 1 h. Non-specific binding is determined in the presence of 1 μM desipramine. In [^3H]citalopram and [^3H]nisoxetine binding assays, radioactivity is determined by liquid scintillation spectrophotometry (efficiency: 50%) after eluting filters overnight in 5 mL of Ecolite scintillation fluid (ICN). IC50 values are calculated from displacement curves using 7-10 concentrations of unlabeled analogs. […] For [^3H]paroxetine and [^3H]nisoxetine binding assays, Ki values are calculated using the Cheng-Prusoff equation.

Series [2] in a line: Log-P (Table 1). The series is classed as physicochemical.
Series [3] addresses T2, dopamine transport (DAT) sites (Rattus norvegicus, UniProt P23977).
T2 construct: from tissue; host or cells: Sprague-Dawley rat striatum membranes
The series can be described thus: DAT binding, displacement of [125I]RTI-55 in rat striatum membranes. The method, then: Frozen brains from Sprague-Dawley rats are obtained commercially and striata are dissected on ice. […] Tubes are incubated for 50 min at 25° C., and the reaction is terminated by rapid filtration with 3-5 ml of cold Tris buffer through Whatman GF/B glass fiber filters pre-soaked in Tris buffer containing 0.1% BSA for at least 1 h. Non-specific binding is determined in the presence of 1 μMWF-23. […]

Series [4] deals with T3, 5-HT transport (SERT) sites (Rattus norvegicus, UniProt P31652).
T3 construct: Tissue is obtained from frozen rat brains as described above; from tissue; host or cells: rat frontal cortex membranes (frozen rat brains)
T3 sequence (P31652 whole entry): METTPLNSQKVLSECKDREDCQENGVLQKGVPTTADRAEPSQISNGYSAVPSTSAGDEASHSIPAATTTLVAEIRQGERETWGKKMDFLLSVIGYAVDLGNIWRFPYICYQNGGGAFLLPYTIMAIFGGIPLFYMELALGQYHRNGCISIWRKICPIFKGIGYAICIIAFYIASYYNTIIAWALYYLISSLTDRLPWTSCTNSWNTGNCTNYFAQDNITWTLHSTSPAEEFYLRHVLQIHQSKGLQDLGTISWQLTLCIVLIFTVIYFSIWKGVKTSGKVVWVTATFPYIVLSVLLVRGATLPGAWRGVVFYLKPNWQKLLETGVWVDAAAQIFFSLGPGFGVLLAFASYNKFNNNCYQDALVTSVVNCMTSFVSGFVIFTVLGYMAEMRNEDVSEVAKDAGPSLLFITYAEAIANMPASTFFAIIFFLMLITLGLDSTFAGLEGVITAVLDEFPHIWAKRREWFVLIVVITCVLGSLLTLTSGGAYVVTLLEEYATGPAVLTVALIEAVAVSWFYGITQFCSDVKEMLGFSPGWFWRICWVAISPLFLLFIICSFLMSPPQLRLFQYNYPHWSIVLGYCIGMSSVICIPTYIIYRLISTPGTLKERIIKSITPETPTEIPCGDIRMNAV
The series can be described thus: SERT binding, displacement of [3H]citalopram in rat frontal cortex membranes. The method, then: Affinities of analogs at 5-HT transport (SERT) sites are determined by displacement of [^3H] citalopram binding in membranes from rat frontal cortex. […] Assay tubes contain 50 mg (original wet weight) of membranes, 0.4 nM [^3H]citalopram, and various concentrations of unlabeled drugs dissolved in citalopram assay buffer in a final volume of 2 ml. Tubes are incubated for 60 min at 25° C., and the reaction is terminated by rapid filtration with 3×4 mL of cold Tris buffer through Whatman GF/B glass fiber filters pre-soaked in Tris buffer containing 0.1% BSA for at least 1 h. Non-specific binding is determined in the presence of 10 μM fluoxetine.
as §1

In series [5] the test system is SNL rats. The series can be described thus: Mechanical allodynia (paw withdrawal threshold) in L5/L6 spinal nerve ligation (SNL) model of neuropathic pain. The series is classed as in vivo, rat. Conditions: for anti-allodynic effect (in words): i.t., clonidine 10 μg, HD-283 30 μg, HD-286 and HD-288 up to 3 μg. The text has this: A 3 cm incision was made in the back using the iliac crests as a midpoint. An incision was then made in the underlying muscle, which was then separated by both sharp and blunt dissection to expose the left transverse process of the fifth lumbar vertebra. The transverse process was removed using bone microrongeurs, and the fifth lumbar nerve was exteriorized from underneath the spinal column using a small metal hook and ligated using 4.0 silk suture with sufficient pressure to cause the nerve to bulge on each side of the ligature. The sixth lumbar nerve was exteriorized from underneath the iliac bone at the sciatic notch and ligated in a similar manner. All muscle layers were sutured using 4.0 chromic gut, the skin was sutured using 4.0 nylon suture.
The animal is placed in a stereotaxic frame to immobilize the head under pentobarbital anesthesia. The animal's body is lifted and supported to render the spinal column straight and level and the animal's head is placed downward such the top of the skull forms a 90° angle with the spinal column. A small incision is placed at the back of the neck and the underlying muscles are blunt dissected to reveal the atlanto-occipital membrane. A small incision is placed in the atlanto-occipital membrane through which a 32 ga polyethylene catheter is inserted that is 8 cm in length. The catheter is anchored to the neck muscles with 4.0 silk suture and the exterior wounds are closed with 4.0 nylon suture.
All compounds were dissolved in 0.9% (wt/vol) saline, pH 7.4 and administered through the intrathecal catheter in a volume of 5 μl, followed by 15 μl of 0.9% saline to flush the catheter.
Paw withdrawal threshold was determined before and at selected time points following intrathecal drug administration using calibrated von Frey filaments. The animals are placed in elevated Plexiglas chambers with wire mesh floors and acclimated for a minimum of 30 minutes. Beginning with a filament calibrated to bend with a force of 2 g of pressure, the filament is applied to the plantar surface of the left hindpaw with sufficient force to bend slightly and left in place for 8 seconds or until the animal withdraws it's paw from the filament. In the absence of a paw withdrawal, the next highest calibrated filament is applied in a similar manner. In the presence of a paw withdrawal, the next lowest calibrated filament is applied. This up-down method continues until 4 responses are recorded after an initial positive response. The paw withdrawal threshold is calculated using Dixon non-parametric statistics.
The potency and efficacy of novel SNRT analogs in reversing mechanical hypersensitivity were determined in the L5/L6 spinal nerve ligation (SNL) model of neuropathic pain in rats. Compounds were administered intrathecal (i.t.) and the effect on paw withdrawal threshold was assessed at various time points following treatment.

Where [6] appears, read: [125I]RTI-55 displacement, rat striatum membranes, reported as IC50, read-out: DAT.
Where [7] appears, read: [3H]citalopram displacement, rat frontal cortex membranes, Ki by Cheng-Prusoff, read-out: SERT.

SMILES strings stand for the structures. Structures can show the parent of a compound that is named as a salt. Where two headings read alike, the source gives them in different places.

T2 sequence (P23977 whole entry): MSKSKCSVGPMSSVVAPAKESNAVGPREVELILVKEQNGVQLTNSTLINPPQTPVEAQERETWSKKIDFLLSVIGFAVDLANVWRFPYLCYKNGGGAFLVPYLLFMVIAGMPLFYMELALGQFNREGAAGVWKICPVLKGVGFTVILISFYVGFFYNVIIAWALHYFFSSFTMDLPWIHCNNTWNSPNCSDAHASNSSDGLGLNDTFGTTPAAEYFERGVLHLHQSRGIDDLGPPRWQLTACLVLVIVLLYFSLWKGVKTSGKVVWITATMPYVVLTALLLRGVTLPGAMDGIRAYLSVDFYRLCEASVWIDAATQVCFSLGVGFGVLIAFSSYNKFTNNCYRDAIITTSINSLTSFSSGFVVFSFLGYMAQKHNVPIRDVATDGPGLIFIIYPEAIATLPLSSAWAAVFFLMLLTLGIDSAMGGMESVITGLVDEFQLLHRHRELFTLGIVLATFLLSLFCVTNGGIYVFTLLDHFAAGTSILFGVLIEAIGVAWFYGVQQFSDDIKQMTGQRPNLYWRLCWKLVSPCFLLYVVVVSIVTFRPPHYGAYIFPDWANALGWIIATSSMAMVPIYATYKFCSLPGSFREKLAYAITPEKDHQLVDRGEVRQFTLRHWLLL
T1 sequence (Q9WTR4 1-597): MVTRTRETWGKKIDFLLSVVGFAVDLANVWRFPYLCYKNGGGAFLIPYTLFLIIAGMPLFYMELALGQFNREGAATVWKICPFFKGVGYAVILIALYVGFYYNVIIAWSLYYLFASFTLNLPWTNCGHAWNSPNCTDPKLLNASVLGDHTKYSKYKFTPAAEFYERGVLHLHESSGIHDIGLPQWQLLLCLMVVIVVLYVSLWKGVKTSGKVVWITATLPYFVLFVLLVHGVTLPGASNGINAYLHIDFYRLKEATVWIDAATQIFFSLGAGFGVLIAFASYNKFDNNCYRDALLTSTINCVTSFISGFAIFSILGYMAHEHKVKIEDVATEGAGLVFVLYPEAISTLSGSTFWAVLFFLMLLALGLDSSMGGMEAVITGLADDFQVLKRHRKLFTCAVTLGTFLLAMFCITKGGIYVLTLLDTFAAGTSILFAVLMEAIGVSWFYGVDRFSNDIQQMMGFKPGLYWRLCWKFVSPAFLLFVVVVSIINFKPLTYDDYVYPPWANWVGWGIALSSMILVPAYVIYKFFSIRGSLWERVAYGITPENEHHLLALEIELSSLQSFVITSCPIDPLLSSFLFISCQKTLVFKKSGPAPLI

`CNCC1CC1(C(=O)OC)c1ccccc1` (racemic) [HD-284, Methyl 2-((methylamino)methyl)-1-phenylcyclopropanecarboxylate]: the Ki in series [1] amounted to 152 ± 65 nM; in series [4] (setting [7]) it was 157 ± 4.8 nM. The Log-P in series [2] stood at 1.65. Also, the IC50 in series [3] (setting [6]) is 1780 ± 87 nM.

As for `CNCC1CC1(C(=O)OC)c1ccc(Br)cc1` (racemic) [HD-285, Methyl 1-(4-bromophenyl)-2-((methylamino)methyl)cyclopropanecarboxylate], the Ki in series [1] was 3.7 ± 1.4 nM; in series [4] (setting [7]) it was 210 ± 10 nM. In addition, in series [2], the Log-P is on record as 2.51. Moreover, the IC50 in series [3] (setting [6]) stood at 1460 ± 470 nM.

In the case of `CNCC1CC1(C(=O)OC)c1ccc(-c2ccccc2)cc1` (racemic) [HD-286, Methyl 1-([1,1′-biphenyl]-4-yl)-2-((methylamino)methyl)cyclopropanecarboxylate hydrochloride], the Ki in series [1] came out at 315 ± 100 nM; in series [4] (setting [7]) it was 4.85 ± 1 nM. This compound also came in with a Log-P in series [2] of 3.54. In series [5], the “anti-allodynic effect (in words)” value is reported as “significantly lower efficacy”.

For `CNCC1CC1(C(=O)OC)c1ccc2ccccc2c1` (racemic) [HD-287, Methyl 2-((methylamino)methyl)-1-(naphthalen-2-yl)cyclopropanecarboxylate hydrochloride], the Ki in series [1] worked out at 3.49 ± 0.64 nM; in series [4], 6.58 ± 0.71 nM. The Log-P in series [2] is listed as 2.82. The compound further had an IC50 in series [3] of 177 ± 44 nM.

As for `CNCC1CC1(C(=O)OC)c1ccc(Cl)c(Cl)c1` (racemic) [HD-288, Methyl 1-(3,4-dichlorophenyl)-2-((methylamino)methyl)cyclopropanecarboxylate], the values for the Ki in series [1] and in series [4] (setting [7]) were 0.8 ± 0.02 nM and 5.6 ± 0.39 nM, respectively. The Log-P in series [2] was found to be 2.95. The compound also returned a PWT after treatment in series [5] (3 μg i.t.) of 24.9 ± 2.5 g. Moreover, the “PWT before treatment (baseline)” value in series [5] (before i.t. drug) is 2.9 ± 0.4 g. In addition, in series [5] (i.t. administration), the “anti-allodynic A50” value stood at 0.6 ± 0.3 µg. In addition, the “anti-allodynic effect (in words)” value in series [5] is on record as “significantly greater than clonidine”.

For the compound `CNCC1CC1(C(=O)OC)c1ccc(OC)c(OC)c1` (racemic) [HD-289, Methyl 1-(3,4-dimethoxyphenyl)-2-((methylamino)methyl)cyclopropanecarboxylate hydrochloride], the Ki in series [1] is 8.62 ± 0.71 nM; in series [4] (setting [7]), 106 ± 21 nM. The same compound came in with a Log-P in series [2] of 1.31. In series [3] (setting [6]), the IC50 amounted to 1360 ± 198 nM.

For `CNCC1CC1(C(=O)OC)c1ccccc1Cl` (racemic) [HD-290, Methyl 1-(2-chlorophenyl)-2-((methylamino)methyl)cyclopropanecarboxylate], the Ki worked out at 289 ± 24 nM in series [1] and 329 ± 54 nM in series [4] (setting [7]). In series [2], this compound yielded a Log-P of 2.36. In series [3] (setting [6]), the IC50 was 1840 ± 350 nM.

Consider `Clc1cccc(Cl)c1N=C1NCCN1` [Clonidine, clonidine, reference compound], for which the “anti-allodynic effect (in words)” value in series [5] is on record as “reversed mechanical allodynia”.

Regarding `CNC[C@H]1C[C@@]1(C(=O)OC)c1ccc(Br)cc1` [HD-324, (1S,2S)-methyl 1-(4-bromophenyl)-2-((methylamino)methyl)cyclopropanecarboxylate], the Ki in series [1] amounted to 44.9 ± 1 nM; in series [4] (setting [7]) it was 946 ± 71 nM. The compound also gave a Log-P in series [2] of 2.51. For the same compound, the IC50 in series [3] (setting [6]) was greater than 10000 nM.

Consider `CNC[C@@H]1C[C@]1(C(=O)OC)c1ccc(Br)cc1` [HD-325, (1R,2R)-methyl 1-(4-bromophenyl)-2-((methylamino)methyl)cyclopropanecarboxylate], for which the Ki in series [1] is 2.49 ± 0.07 nM; in series [4] (setting [7]), 47 ± 2.9 nM. Further, the Log-P in series [2] amounted to 2.51. Besides, the IC50 in series [3] (setting [6]) worked out at 333 ± 79 nM.

In the case of `CNC[C@H]1C[C@@]1(C(=O)OC)c1ccc(Cl)c(Cl)c1` [HD-326, (1S,2S)-methyl 1-(3,4-dichlorophenyl)-2-((methylamino)methyl)cyclopropanecarboxylate], the Ki is 8.11 ± 0.8 nM in series [1] and 40.5 ± 4.3 nM in series [4] (setting [7]). Besides, in series [2], the Log-P worked out at 2.95.

On to `CNC[C@@H]1C[C@]1(C(=O)OC)c1ccc(Cl)c(Cl)c1` [HD-327, (1R,2R)-methyl 1-(3,4-dichlorophenyl)-2-((methylamino)methyl)cyclopropanecarboxylate], for which the values for the Ki in series [1] and in series [4] (setting [7]) were 0.31 ± 0.01 nM and 2.42 ± 0.31 nM, respectively. In series [2], the Log-P came to 2.95.

For the compound `CNC[C@H]1C[C@@]1(C(=O)OC)c1ccc(Br)c(Br)c1` [HD-328, (1S,2S)-methyl 1-(3,4-dibromophenyl)-2-((methylamino)methyl)cyclopropanecarboxylate], the Ki is 4.57 ± 0.66 nM in series [1] and 18.4 ± 2.5 nM in series [4] (setting [7]). The same compound registered a Log-P in series [2] of 3.17. Besides, the IC50 in series [3] (setting [6]) came to 87.9 ± 9.5 nM.

Turning to `CNC[C@@H]1C[C@]1(C(=O)OC)c1ccc(Br)c(Br)c1` [HD-329, (1R,2R)-methyl 1-(3,4-dibromophenyl)-2-((methylamino)methyl)cyclopropanecarboxylate], the Ki in series [1] stood at 0.62 ± 0.12 nM; in series [4] (setting [7]) it was 1.71 ± 0.05 nM. For the same compound, the Log-P in series [2] came out at 3.17. Moreover, in series [3] (setting [6]), the IC50 was 35.2 ± 4.6 nM.

Turning to `CNC[C@H]1C[C@@]1(C(=O)OC)c1ccc2ccccc2c1` [HD-330, (1S,2S)-methyl 2-((methylamino)methyl)-1-(naphthalen-2-yl)cyclopropanecarboxylate], the Ki in series [1] came out at 16.4 ± 0.52 nM; in series [4], 27 ± 3.4 nM. In series [2], this compound came in with a Log-P of 2.82. In addition, the IC50 in series [3] (setting [6]) was 313 ± 55 nM.

Turning to `CNC[C@@H]1C[C@]1(C(=O)OC)c1ccc2ccccc2c1` [HD-331, (1R,2R)-methyl 2-((methylamino)methyl)-1-(naphthalen-2-yl)cyclopropanecarboxylate], the Ki in series [1] is 10.4 ± 0.89 nM; in series [4], 15 ± 2.8 nM. Also, in series [2], the Log-P stood at 2.82. Besides, the IC50 in series [3] (setting [6]) is 320 ± 51 nM.

Regarding `CNC[C@H]1C[C@@]1(C(=O)OC)c1ccc(-c2ccccc2)cc1` [HD-332, (1S,2S)-methyl 1-([1,1′-biphenyl]-4-yl)-2-((methylamino)methyl)cyclopropanecarboxylate], the Ki in series [1] is greater than 10000 nM; in series [4] (setting [7]), 79.8 ± 21 nM. The same compound gave a Log-P in series [2] of 3.54.

`CNC[C@@H]1C[C@]1(C(=O)OC)c1ccc(-c2ccccc2)cc1` [HD-333, (1R,2R)-methyl 1-([1,1′-biphenyl]-4-yl)-2-((methylamino)methyl)cyclopropanecarboxylate]: the figures for the Ki in series [1] and in series [4] (setting [7]) were 86.6 ± 19 nM and 2.69 ± 0.62 nM, respectively. The compound also had a Log-P in series [2] of 3.54.
